{
  "source": "paper PMC10945555",
  "about": "“Improving Activity of New Arylurea Agents against Multidrug-Resistant and Biofilm-Producing Staphylococcus epidermidis” (ACS Medicinal Chemistry Letters, 2024)",
  "key": {"[1]": {"tested_on": "BJ cells", "assay": "Cytotoxicity, MTT assay, skin fibroblasts", "type": "cell-based, human", "details": "Homo sapiens, MTT, 24 h, n = 3", "procedure": "(§1) The following cell models were used in the research: rat cardiomyocytes (H9c2 line) and human skin fibroblasts (BJ line). All cell lines used in the work are commercially available and were purchased from ATCC banks (the American Type Culture Collection, Manassas, VI, USA). Cell cultures were carried out in an incubator under standard conditions (37°C, 5% CO 2).\n(§2) Culture media (Dulbecco's Modified Eagle's Medium -DMEM (H9c2) and Eagle's Minimum Essential Medium-EMEM (BJ) were supplemented with 10% bovine serum and a 1% mixture of penicillin and streptomycin antibiotics. […]\n(§3) doxorubicin (a cytotoxic drug) were used as reference and positive control, respectively. […]\n(§4) solution (5 mg/mL) was transferred into culture medium of incubated cells. After 3 h, once dark crystals of formazan were produced in cells, medium was aspirated and 100 μ L of DMSO was added to dissolve formazan. Absorbance of DMSO solution was read on a multiwell plate reader (Spectra Max iD3, Molecular Devices) at 570 nm. In order to determine viability, absorbance of experimental wells was divided by absorbance of contro l well (not treated) and multiplied by 100 (%). Three separate experiments were performed. IC 50 was calculated using non-linear regression method in OriginPro software. […]"}, "[2]": {"tested_on": "Staphylococcus epidermidis ATCC 35984", "assay": "MIC, broth microdilution, MDR/BPSE reference strain", "type": "cell-based", "details": "Staphylococcus epidermidis, ATCC35984, read-out: MIC MDR/BPSE, Staphylococcus epidermidis ATCC 35984", "description": "These strains included susceptible, multidrug-resistant, and biofilm-producing strains of S. epidermidis and S. aureus (MSSE, MDR/BPSE, and MDR/BPSA, respectively). The cornerstone antibiotic linezolid served as a positive control (Table 1). The impact of structural modifications at the aryloxy fragment and the aromatic moiety bound to the propyl linker on the inhibitory activity was initially investigated. […] Further optimization focused on evaluating the impact of the type of substituent and its position on the arylsulfonamide fragment’s activity.\n2 Biological assay protocols\nMicrobiological tests were carried out under aseptic conditions in a laminar chamber of the 2nd […]\n(BioTectum 1.2, Alchem Poland). The assessment of antimicrobial activity was carried out for final compounds in the form of free bases, soluble in DMSO (Merck, Germany), at the initial […]\nconcentration of 1 mg/mL. […]\nwere provided by Cayman Chemical, USA.\nThe activity of all newly synthesized compounds was tested in vitro on a panel of selected reference strains from the American Type Culture Collection (ATCC) of Gram-positive […]\n2.2 Effect of evaluated compounds on planktonic cells\nThe susceptibility of three reference bacterial strains (Staphylococcus epidermidis ATCC […]\nTable S1) and 81 clinical MDR S. epidermidis (Table S2) to the tested compounds was assessed by determining the MIC value (Minimal Inhibitory Concentration) by microdilution in a liquid medium in 96-well flat-bottom cell culture plates (Nest Biotechnology Scientific, USA). The antibacterial properties of the compo unds were tested in the concentration range from 50 µg/mL to 0.1 µg/mL by making a series of double dilutions of the compound in liquid Mueller -Hinton II Broth Cation Adjusted (MHB II, BBL TM, USA) according to the European Committee on […]\nAntimicrobial Susceptibility Testing guidelines (EUCAST).2,3 The determinations were performed twice. The MIC50 and MIC90 values were determined for each of the tested"}, "[3]": {"tested_on": "biofilm-producing Staphylococcus epidermidis strains", "assay": "Inhibition of biofilm formation (MBIC, resazurin)", "type": "cell-based", "procedure": "After 24 hours incubation each well of\nconcentration of 4 mg/mL was added. […]"}, "[4]": {"tested_on": "H9c2 cells", "assay": "Cytotoxicity, MTT assay, cardiomyocytes", "type": "cell-based", "details": "Rattus norvegicus, 24 h, n = 3", "procedure": "as §1, §2, §3\nas §4, with “incubated with studied compound in appropriate concentration for next 24 h. Then MTT solution (5” for “solution (5”"}},
  "data": [
    {"smiles": "O=S(=O)(NC1CCN(CCC(Oc2ccc(C(F)(F)F)cc2)c2cccs2)CC1)c1cccc(Cl)c1", "note": "(stereo not shown) [Compound 14]", "values": [
      {"measurement": "IC50", "setting": "[1]", "value": 9.9, "unit": "µg/mL"},
      {"measurement": "MIC", "setting": "[2]", "value": "≤ 0.8", "unit": "µg/mL"},
      {"measurement": "MBIC", "setting": "[3]; S. epidermidis ATCC 35984 (Table S4)", "value": 31.25, "unit": "µg/mL"},
      {"measurement": "MBIC50", "setting": "[3]; Table S4 strains", "value": 125, "unit": "µg/mL"},
      {"measurement": "MBIC", "setting": "[3]; clinical strain 1 (Table S4)", "value": 31.25, "unit": "µg/mL"},
      {"measurement": "MBIC", "setting": "[3]; clinical strain 2 (Table S4)", "value": 125, "unit": "µg/mL"},
      {"measurement": "MBIC", "setting": "[3]; clinical strain 3 (Table S4)", "value": 125, "unit": "µg/mL"},
      {"measurement": "MBIC", "setting": "[3]; clinical strain 4 (Table S4)", "value": 125, "unit": "µg/mL"},
      {"measurement": "MBIC", "setting": "[3]; clinical strain 5 (Table S4)", "value": 62.5, "unit": "µg/mL"},
      {"measurement": "MBIC", "setting": "[3]; clinical strain 6 (Table S4)", "value": 125, "unit": "µg/mL"},
      {"measurement": "MBIC", "setting": "[3]; clinical strain 7 (Table S4)", "value": 125, "unit": "µg/mL"},
      {"measurement": "MBIC", "setting": "[3]; clinical strain 8 (Table S4)", "value": 15.6, "unit": "µg/mL"},
      {"measurement": "MBIC", "setting": "[3]; clinical strain 9 (Table S4)", "value": 125, "unit": "µg/mL"},
      {"measurement": "MBIC", "setting": "[3]; clinical strain 11 (Table S4)", "value": 125, "unit": "µg/mL"},
      {"measurement": "MBIC", "setting": "[3]; clinical strain 12 (Table S4)", "value": 125, "unit": "µg/mL"},
      {"measurement": "MBIC", "setting": "[3]; clinical strain 13 (Table S4)", "value": 62.5, "unit": "µg/mL"},
      {"measurement": "MBIC", "setting": "[3]; clinical strain 15 (Table S4)", "value": 125, "unit": "µg/mL"},
      {"measurement": "MBIC", "setting": "[3]; clinical strain 16 (Table S4)", "value": 31.25, "unit": "µg/mL"},
      {"measurement": "MBIC", "setting": "[3]; clinical strain 17 (Table S4)", "value": 62.5, "unit": "µg/mL"},
      {"measurement": "MBIC", "setting": "[3]; clinical strain 19 (Table S4)", "value": 31.25, "unit": "µg/mL"},
      {"measurement": "MBIC", "setting": "[3]; clinical strain 21 (Table S4)", "value": 125, "unit": "µg/mL"},
      {"measurement": "MBIC", "setting": "[3]; clinical strain 22 (Table S4)", "value": 125, "unit": "µg/mL"},
      {"measurement": "MBIC", "setting": "[3]; clinical strain 23 (Table S4)", "value": 7.8, "unit": "µg/mL"},
      {"measurement": "MBIC", "setting": "[3]; clinical strain 25 (Table S4, Figure 2)", "value": 31.25, "unit": "µg/mL"},
      {"measurement": "MBIC", "setting": "[3]; clinical strain 26 (Table S4)", "value": 125, "unit": "µg/mL"},
      {"measurement": "MBIC", "setting": "[3]; clinical strain 27 (Table S4)", "value": 250, "unit": "µg/mL"},
      {"measurement": "MBIC", "setting": "[3]; clinical strain 28 (Table S4)", "value": 62.5, "unit": "µg/mL"},
      {"measurement": "MBIC", "setting": "[3]; clinical strain 29 (Table S4)", "value": 62.5, "unit": "µg/mL"},
      {"measurement": "MBIC", "setting": "[3]; clinical strain 30 (Table S4)", "value": 62.5, "unit": "µg/mL"},
      {"measurement": "MBIC", "setting": "[3]; clinical strain 33 (Table S4)", "value": 125, "unit": "µg/mL"},
      {"measurement": "MBIC", "setting": "[3]; clinical strain 35 (Table S4)", "value": 125, "unit": "µg/mL"},
      {"measurement": "MBIC", "setting": "[3]; clinical strain 36 (Table S4)", "value": 62.5, "unit": "µg/mL"},
      {"measurement": "MBIC", "setting": "[3]; clinical strain 37 (Table S4)", "value": 125, "unit": "µg/mL"},
      {"measurement": "MBIC", "setting": "[3]; clinical strain 39 (Table S4)", "value": 15.6, "unit": "µg/mL"},
      {"measurement": "MBIC", "setting": "[3]; clinical strain 40 (Table S4)", "value": 31.25, "unit": "µg/mL"},
      {"measurement": "MBIC", "setting": "[3]; clinical strain 41 (Table S4)", "value": 125, "unit": "µg/mL"},
      {"measurement": "MBIC", "setting": "[3]; clinical strain 42 (Table S4)", "value": 125, "unit": "µg/mL"},
      {"measurement": "MBIC", "setting": "[3]; clinical strain 43 (Table S4)", "value": 250, "unit": "µg/mL"},
      {"measurement": "MBIC", "setting": "[3]; clinical strain 44 (Table S4)", "value": 62.5, "unit": "µg/mL"},
      {"measurement": "MBIC", "setting": "[3]; clinical strain 45 (Table S4)", "value": 125, "unit": "µg/mL"},
      {"measurement": "MBIC", "setting": "[3]; clinical strain 46 (Table S4)", "value": 125, "unit": "µg/mL"},
      {"measurement": "MBIC", "setting": "[3]; clinical strain 47 (Table S4)", "value": 62.5, "unit": "µg/mL"},
      {"measurement": "MBIC", "setting": "[3]; clinical strain 49 (Table S4)", "value": 31.25, "unit": "µg/mL"},
      {"measurement": "MBIC", "setting": "[3]; clinical strain 51 (Table S4)", "value": 125, "unit": "µg/mL"},
      {"measurement": "MBIC", "setting": "[3]; clinical strain 55 (Table S4)", "value": 125, "unit": "µg/mL"},
      {"measurement": "MBIC", "setting": "[3]; clinical strain 58 (Table S4)", "value": 125, "unit": "µg/mL"},
      {"measurement": "MBIC", "setting": "[3]; clinical strain 59 (Table S4)", "value": 125, "unit": "µg/mL"},
      {"measurement": "MBIC", "setting": "[3]; clinical strain 65 (Table S4)", "value": 125, "unit": "µg/mL"},
      {"measurement": "MBIC", "setting": "[3]; clinical strain 66 (Table S4)", "value": 125, "unit": "µg/mL"},
      {"measurement": "MBIC", "setting": "[3]; clinical strain 67 (Table S4)", "value": 125, "unit": "µg/mL"},
      {"measurement": "MBIC", "setting": "[3]; clinical strain 70 (Table S4)", "value": 125, "unit": "µg/mL"},
      {"measurement": "MBIC", "setting": "[3]; clinical strain 73 (Table S4)", "value": 31.25, "unit": "µg/mL"},
      {"measurement": "MBIC", "setting": "[3]; clinical strain 74 (Table S4)", "value": 125, "unit": "µg/mL"},
      {"measurement": "MBIC", "setting": "[3]; clinical strain 75 (Table S4)", "value": 31.25, "unit": "µg/mL"},
      {"measurement": "MBIC", "setting": "[3]; clinical strain 78 (Table S4)", "value": 15.6, "unit": "µg/mL"},
      {"measurement": "MBIC", "setting": "[3]; clinical strain 79 (Table S4)", "value": 31.25, "unit": "µg/mL"},
      {"measurement": "IC50", "setting": "[4]", "value": 28, "unit": "µg/mL"}
    ]},
    {"smiles": "O=S(=O)(NC1CCN(CCC(Oc2ccc(C(F)(F)F)cc2)c2cccs2)CC1)c1cccc(Br)c1", "note": "(stereo not shown) [Compound 18]", "values": [
      {"measurement": "MIC", "setting": "[2]", "value": "≤ 0.8", "unit": "µg/mL"}
    ]}
  ]
}
